From ChEMBL document CHEMBL3593212, “Synthesis and evaluation of novel 1H-pyrrolo[2,3-b]pyridine-5-carboxamide derivatives as potent and orally efficacious immunomodulators targeting JAK3” (Bioorg Med Chem, 2015)

Assays:
[1] = target: Tyrosine-protein kinase JAK2 (Homo sapiens, UniProt O60674); experiment: Inhibition of human JAK2 kinase domain using biotin-Lyn-substrate-2 as substrate incubated for 1 hr by ELISA method
[2] = target: T1, Tyrosine-protein kinase JAK3 (Homo sapiens, UniProt P52333); experiment: Inhibition of human JAK3 kinase domain using biotin-Lyn-substrate-2 as substrate incubated for 1 hr by ELISA method
T1 sequence (P52333 whole entry): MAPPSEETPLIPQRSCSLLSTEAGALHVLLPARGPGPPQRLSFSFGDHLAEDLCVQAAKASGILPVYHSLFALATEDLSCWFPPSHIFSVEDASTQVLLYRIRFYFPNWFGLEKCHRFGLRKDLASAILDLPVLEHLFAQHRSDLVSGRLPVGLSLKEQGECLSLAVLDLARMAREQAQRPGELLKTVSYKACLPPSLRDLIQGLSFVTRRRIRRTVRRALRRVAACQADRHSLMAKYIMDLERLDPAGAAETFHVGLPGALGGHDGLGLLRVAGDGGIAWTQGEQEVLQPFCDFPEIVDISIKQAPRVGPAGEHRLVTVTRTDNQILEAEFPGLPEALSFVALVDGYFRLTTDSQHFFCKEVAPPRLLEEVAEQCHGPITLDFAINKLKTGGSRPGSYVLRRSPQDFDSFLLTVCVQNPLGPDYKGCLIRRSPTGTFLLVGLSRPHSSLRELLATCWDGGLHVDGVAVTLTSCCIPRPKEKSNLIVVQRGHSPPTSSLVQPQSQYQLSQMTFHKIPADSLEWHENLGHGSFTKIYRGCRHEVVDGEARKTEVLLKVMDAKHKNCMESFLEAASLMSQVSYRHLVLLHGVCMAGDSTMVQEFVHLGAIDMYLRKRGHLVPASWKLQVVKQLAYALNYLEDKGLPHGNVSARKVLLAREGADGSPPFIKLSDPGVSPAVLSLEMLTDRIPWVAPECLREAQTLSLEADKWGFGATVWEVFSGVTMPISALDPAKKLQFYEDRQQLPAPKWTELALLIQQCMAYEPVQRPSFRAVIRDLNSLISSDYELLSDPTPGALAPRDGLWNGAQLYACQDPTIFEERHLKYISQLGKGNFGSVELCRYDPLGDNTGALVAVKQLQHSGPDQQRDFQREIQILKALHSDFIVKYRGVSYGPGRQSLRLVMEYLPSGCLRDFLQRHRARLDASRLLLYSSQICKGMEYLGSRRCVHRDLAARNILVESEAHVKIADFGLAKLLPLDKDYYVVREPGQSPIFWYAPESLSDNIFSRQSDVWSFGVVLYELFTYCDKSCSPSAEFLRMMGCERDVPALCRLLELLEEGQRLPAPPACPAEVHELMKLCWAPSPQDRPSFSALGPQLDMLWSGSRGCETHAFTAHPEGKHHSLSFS

[3] = target: Tyrosine-protein kinase JAK1 (Homo sapiens, UniProt P23458); experiment: Inhibition of human JAK1 kinase domain using biotin-Lyn-substrate-2 as substrate incubated for 1 hr by ELISA method
Chain of Tyrosine-protein kinase JAK1 (P23458 whole entry, the tested form may be a part): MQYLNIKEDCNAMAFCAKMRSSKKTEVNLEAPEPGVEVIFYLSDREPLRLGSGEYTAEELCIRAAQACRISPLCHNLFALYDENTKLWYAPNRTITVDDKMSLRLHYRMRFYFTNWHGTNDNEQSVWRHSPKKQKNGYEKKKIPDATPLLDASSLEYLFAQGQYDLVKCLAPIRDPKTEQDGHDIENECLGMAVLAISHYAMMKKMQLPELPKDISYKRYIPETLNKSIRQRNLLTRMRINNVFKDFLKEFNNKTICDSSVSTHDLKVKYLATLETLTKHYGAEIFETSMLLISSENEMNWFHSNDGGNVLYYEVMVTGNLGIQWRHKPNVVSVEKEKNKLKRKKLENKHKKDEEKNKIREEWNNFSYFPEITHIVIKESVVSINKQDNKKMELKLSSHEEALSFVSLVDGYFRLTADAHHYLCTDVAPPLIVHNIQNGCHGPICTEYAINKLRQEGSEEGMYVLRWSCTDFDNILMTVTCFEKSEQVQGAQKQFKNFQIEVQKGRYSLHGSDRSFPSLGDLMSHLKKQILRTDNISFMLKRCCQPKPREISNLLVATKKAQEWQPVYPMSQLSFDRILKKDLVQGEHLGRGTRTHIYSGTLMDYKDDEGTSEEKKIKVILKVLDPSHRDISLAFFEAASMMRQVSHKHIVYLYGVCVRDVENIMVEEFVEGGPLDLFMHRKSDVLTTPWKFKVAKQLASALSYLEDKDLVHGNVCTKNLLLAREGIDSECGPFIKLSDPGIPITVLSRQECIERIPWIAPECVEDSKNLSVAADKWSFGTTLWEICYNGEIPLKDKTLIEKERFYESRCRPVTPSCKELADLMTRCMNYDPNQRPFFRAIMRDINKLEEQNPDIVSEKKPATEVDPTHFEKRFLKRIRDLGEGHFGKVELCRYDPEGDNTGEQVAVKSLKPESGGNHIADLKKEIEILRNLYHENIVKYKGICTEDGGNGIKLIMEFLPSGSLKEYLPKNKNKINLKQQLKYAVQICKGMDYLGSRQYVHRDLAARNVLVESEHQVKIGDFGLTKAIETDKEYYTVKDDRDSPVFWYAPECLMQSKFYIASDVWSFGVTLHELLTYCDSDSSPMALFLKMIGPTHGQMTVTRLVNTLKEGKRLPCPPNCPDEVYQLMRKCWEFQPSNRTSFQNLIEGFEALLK

[4] = Inhibition of JAK1/JAK3 in Lewis rat splenocytes assessed as reduction in IL2-stimulated T-cell proliferation incubated for 3 days by alamar blue dye based fluorescence assay; details: 72 h
[5] = Effective permeability of the compound at pH 7.4 by PAMPA method; assay type: physicochemical; details: read-out: Peff
[6] = target: Voltage-gated inwardly rectifying potassium channel KCNH2 (Homo sapiens, UniProt Q12809)
Chain of Voltage-gated inwardly rectifying potassium channel KCNH2 (Q12809 whole entry): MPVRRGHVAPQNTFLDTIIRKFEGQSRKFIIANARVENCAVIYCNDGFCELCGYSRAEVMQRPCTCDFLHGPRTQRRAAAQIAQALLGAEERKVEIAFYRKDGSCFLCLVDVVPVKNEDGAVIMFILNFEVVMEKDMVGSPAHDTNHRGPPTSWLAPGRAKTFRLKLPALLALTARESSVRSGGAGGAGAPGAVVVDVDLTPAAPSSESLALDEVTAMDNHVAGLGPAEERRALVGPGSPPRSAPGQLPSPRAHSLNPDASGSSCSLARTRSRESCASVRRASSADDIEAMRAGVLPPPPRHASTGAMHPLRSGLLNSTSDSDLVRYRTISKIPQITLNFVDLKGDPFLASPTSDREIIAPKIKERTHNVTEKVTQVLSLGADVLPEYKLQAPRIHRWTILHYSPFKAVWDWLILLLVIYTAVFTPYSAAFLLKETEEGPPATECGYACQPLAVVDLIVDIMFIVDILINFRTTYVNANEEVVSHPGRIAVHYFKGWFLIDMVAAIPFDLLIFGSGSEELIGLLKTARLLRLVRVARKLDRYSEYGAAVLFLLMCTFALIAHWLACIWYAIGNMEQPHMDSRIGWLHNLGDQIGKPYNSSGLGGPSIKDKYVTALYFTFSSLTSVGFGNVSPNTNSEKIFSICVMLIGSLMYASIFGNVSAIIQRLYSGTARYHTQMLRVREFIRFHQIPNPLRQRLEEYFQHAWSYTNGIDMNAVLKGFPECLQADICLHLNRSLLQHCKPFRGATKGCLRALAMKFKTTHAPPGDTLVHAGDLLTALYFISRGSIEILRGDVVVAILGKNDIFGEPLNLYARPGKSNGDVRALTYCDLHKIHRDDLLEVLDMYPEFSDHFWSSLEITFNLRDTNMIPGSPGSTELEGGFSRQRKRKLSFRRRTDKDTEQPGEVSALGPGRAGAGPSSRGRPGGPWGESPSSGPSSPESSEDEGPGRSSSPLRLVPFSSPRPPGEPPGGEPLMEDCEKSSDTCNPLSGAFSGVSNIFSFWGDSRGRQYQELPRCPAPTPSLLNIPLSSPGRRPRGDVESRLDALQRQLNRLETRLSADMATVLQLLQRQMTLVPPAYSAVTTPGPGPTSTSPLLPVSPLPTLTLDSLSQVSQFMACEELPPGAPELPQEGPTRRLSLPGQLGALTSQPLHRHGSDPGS
Description: Inhibition of human ERG expressed in CHOK1 cells incubated for 10 mins by Rb efflux assay

[7] = Intrinsic clearance in rat liver microsomes at 0.2 uM in presence of NADPH generating system by LC/MS/MS method; assay type: ADME; details: read-out: CLH

Chain of Tyrosine-protein kinase JAK2 (O60674 whole entry, the tested form may be a part): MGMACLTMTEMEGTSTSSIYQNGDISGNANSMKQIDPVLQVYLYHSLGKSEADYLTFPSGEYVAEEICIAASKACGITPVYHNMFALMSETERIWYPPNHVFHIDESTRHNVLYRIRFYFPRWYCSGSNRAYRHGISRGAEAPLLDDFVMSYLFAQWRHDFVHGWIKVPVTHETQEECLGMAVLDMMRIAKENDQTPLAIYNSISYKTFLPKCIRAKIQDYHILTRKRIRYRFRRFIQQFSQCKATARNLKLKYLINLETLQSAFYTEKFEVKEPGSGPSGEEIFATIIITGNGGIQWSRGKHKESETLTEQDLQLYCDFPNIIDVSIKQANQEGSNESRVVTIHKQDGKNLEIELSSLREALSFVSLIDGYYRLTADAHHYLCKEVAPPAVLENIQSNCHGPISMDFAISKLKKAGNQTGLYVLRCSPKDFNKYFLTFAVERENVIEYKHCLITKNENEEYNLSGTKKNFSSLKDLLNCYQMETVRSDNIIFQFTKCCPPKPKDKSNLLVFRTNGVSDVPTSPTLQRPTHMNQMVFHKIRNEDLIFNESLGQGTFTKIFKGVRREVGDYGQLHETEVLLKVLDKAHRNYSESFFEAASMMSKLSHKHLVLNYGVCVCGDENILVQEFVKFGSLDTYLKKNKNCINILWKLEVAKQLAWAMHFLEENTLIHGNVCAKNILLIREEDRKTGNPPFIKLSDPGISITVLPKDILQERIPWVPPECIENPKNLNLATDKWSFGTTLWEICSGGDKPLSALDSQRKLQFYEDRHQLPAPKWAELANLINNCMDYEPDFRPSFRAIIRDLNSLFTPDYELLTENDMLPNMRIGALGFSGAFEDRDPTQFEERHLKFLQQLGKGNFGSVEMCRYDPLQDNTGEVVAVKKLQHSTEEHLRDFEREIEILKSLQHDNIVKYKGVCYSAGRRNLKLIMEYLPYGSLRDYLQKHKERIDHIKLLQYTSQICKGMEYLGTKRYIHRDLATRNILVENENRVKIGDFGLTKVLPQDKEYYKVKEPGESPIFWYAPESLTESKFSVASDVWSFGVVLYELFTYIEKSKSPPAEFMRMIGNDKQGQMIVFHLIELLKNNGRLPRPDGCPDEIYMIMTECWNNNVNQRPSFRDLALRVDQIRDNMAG

Structure (SMILES)	IC50 [1]	IC50 [2]	IC50 [3]	IC50 [4]	Papp [5]	IC50 [6]	CLint scaled at 0.2 µM [7]
NC(=O)c1cnc2[nH]ccc2c1NC1CCN(Cc2ccccc2)CC1	0.084 µM	–	–	–	–	–	–
N#Cc1ccc(N2CC[C@H](Nc3c(C(N)=O)cnc4[nH]ccc34)[C@H](F)C2)nc1	0.017 µM	0.0017 µM	0.027 µM	0.044 µM	5 ×10⁻⁶ cm/s	> 100 µM	–
N#Cc1ccc(N2CCC(Nc3c(C(N)=O)cnc4[nH]ccc34)CC2)cc1	0.049 µM	–	0.05 µM	–	–	–	262 mL/min/kg
NC(=O)c1cnc2[nH]ccc2c1N[C@H]1CCCN(Cc2ccccc2)C1	0.64 µM	0.13 µM	–	–	–	–	–
NC(=O)c1ccc(N2CCC(Nc3c(C(N)=O)cnc4[nH]ccc34)CC2)nc1	0.041 µM	0.0052 µM	0.058 µM	–	–	–	–
CS(=O)(=O)N1CCC(Nc2c(C(N)=O)cnc3[nH]ccc23)CC1	0.19 µM	0.15 µM	–	–	–	–	–
N#Cc1ccc(N2CCC(Nc3c(C(N)=O)cnc4[nH]ccc34)CC2)nc1	0.018 µM	0.0013 µM	0.016 µM	0.027 µM	26 ×10⁻⁶ cm/s	–	204 mL/min/kg
NC(=O)c1cnc2[nH]ccc2c1NC1CCN(c2ccc(CO)cn2)CC1	0.1 µM	0.0092 µM	0.18 µM	–	–	–	–
CN1CCC(Nc2c(C(N)=O)cnc3[nH]ccc23)CC1	0.31 µM	0.09 µM	0.3 µM	–	–	–	–
N#CCC(=O)N1CCC(Nc2c(C(N)=O)cnc3[nH]ccc23)CC1	0.2 µM	0.046 µM	0.11 µM	–	–	–	–
C[C@@H]1CCCC[C@@H]1Nc1c(C(N)=O)cnc2[nH]ccc12	0.03 µM	0.0051 µM	0.047 µM	0.086 µM	–	–	> 1000 mL/min/kg
N#Cc1cccc(CN2CCC(Nc3c(C(N)=O)cnc4[nH]ccc34)CC2)c1	0.046 µM	0.025 µM	–	–	–	–	–
C[C@H]1CN(c2ccc(C#N)cn2)CC[C@H]1Nc1c(C(N)=O)cnc2[nH]ccc12 (relative stereo)	0.014 µM	0.00078 µM	0.011 µM	–	–	–	–
CC(=O)N1CCC(Nc2c(C(N)=O)cnc3[nH]ccc23)CC1	0.64 µM	0.34 µM	–	–	–	–	–
N#Cc1cnc(N2CCC(Nc3c(C(N)=O)cnc4[nH]ccc34)CC2)cn1	0.041 µM	0.0036 µM	0.035 µM	0.077 µM	< 0.2 ×10⁻⁶ cm/s	> 100 µM	–
N#Cc1ccc(N2CCC(Nc3c(C(N)=O)cnc4[nH]ccc34)CC2)nn1	0.012 µM	0.0012 µM	0.022 µM	0.14 µM	< 0.2 ×10⁻⁶ cm/s	> 100 µM	–
NC(=O)c1cnc2[nH]ccc2c1N[C@@H]1CCCN(Cc2ccccc2)C1	0.43 µM	0.24 µM	–	–	–	–	–
NC(=O)c1cnc2[nH]ccc2c1NC1CCN(c2ccc(C(F)(F)F)cn2)CC1	0.37 µM	0.025 µM	–	–	–	–	–
